PMC9398908, “GLP-1-mediated delivery of tesaglitazar improves obesity and glucose metabolism in male mice” (Nature Metabolism, 2022)
Where “and” joins values, the source holds several entries; their conditions need not be identical. Identical values can stand only once.

Columns and labels:
[1] = system: Fabp4, Plin2, Arntl, Sema3c; experiment: PPAR target gene expression in liver (Fabp4, Plin2) and skeletal muscle (Arntl, Sema3c) of DIO mice (Fig. 2j–m); assay type: in vivo, mouse
Method: For assessment of acute drug effects, animals were treated with the respective compounds 4 h before tissue harvesting. Dissected tissues were frozen immediately on dry ice, and RNA was isolated using RNeasy Mini Kits (Qiagen). mRNA levels were determined using TaqMan probes for fatty acid binding protein 4 (Fabp4, Mm00445878_m1), perilipin-2 (Plin2, Mm00475794_m1), aryl hydrocarbon receptor nuclear translocator-like protein 1 (Arntl, Mm00500223_m), semaphorin 3 C (Sema3c, Mm00443121_m1) and hypoxanthine phosphoribosyltransferase 1 (Hprt, Mm03024075_m1) in custom-made low density array cards (Thermo Fisher) or in single assays on a QuantStudio 7 Real-Time PCR system. Target gene expression was normalized to HPRT and fold change was calculated relative to vehicle-treated controls.

[2] = system: DIO mice; experiment: In vivo glucose-stimulated insulin secretion in DIO mice (Fig. 2i); parameters: species or system mouse; conditions: Figure 2i, individual mice
[3] = system: C57BL/6J DIO mice; experiment: Urinary albumin:creatinine ratio in DIO mice (Extended Data Fig. 2g); assay type: in vivo, mouse; conditions: 14-day treatment, 50 nmol kg−1 per day, in words
Text: Frozen urine samples from heterozygous GIPR^dn mice in a CD1 background (n = 3) served as positive controls. […] For each treatment group, uACR was computed as a ratio of urinary albumin (mg ml^−1) to urinary creatinine (mg ml^−1).

[4] = system: db/db mice; experiment: 4-day treatment of obese db/db mice (50 nmol/kg/day): body weight, food intake, glucose, tolerance test (Fig. 6); assay type: in vivo, mouse; parameters: blood glucose (legend: change in blood glucose) / AOC: unit not given here; conditions: 4 days, 50 nmol kg−1 per day, individual mice
Method: (§1) Glp1r^−/− mice were kindly provided by D. Drucker (University of Toronto, Canada). All wildtype and knockout mice used in our studies were in-house bred on a C57BL/6J background. Mice were double-housed and kept in a constant environment with the ambient temperature set to 22 ± 2 °C with constant humidity (45–65%) and a 12 h/12 h light/dark cycle with lights off from 06:00 until 18:00. For studies in DIO mice, male C57BL/6J mice were fed with a high-fat diet comprising 58% kilocalories from fat (D12331, Research Diets). db/db mice were fed with a normal chow diet (T1314, Altromin GmbH) throughout the study. At the beginning of each experiment, mice were equally distributed into experimental groups according to their body weight and body composition. All animal studies were approved by the State of Bavaria, Germany, or the Insitutional Animal Care and Use Committee of the University of Cincinnati, OH, USA and conducted on the basis of the underlying animal welfare law of the respective countries. Compounds were dissolved in PBS and were s.c. administered with a volume of 5 μl g^−1 body weight in the indicated doses between 15:00 and 16:00.
(§2) Glucose tolerance was assessed in 6 h fasted mice after i.p injection of 1.75 g glucose per kg body weight (DIO mice). Insulin tolerance was assessed in 6 h fasted mice after i.p. injection of either 0.75 U Insulin per […] body weight (DIO mice) or 1 U Insulin per […] body weight (db/db mice) (Humalog, Eli Lilly). Tail vein blood glucose was subsequently measured using a handheld glucometer (TheraSense Freestyle) at baseline and after 15, 30, 60 and 120 min.

[5] = biological target: T1, hGLP-1R (Homo sapiens, UniProt P43220); experiment: hGLP-1R-Rluc8 co-localization with lysosome marker Lamp1-mNeonGreen (BRET) in HEK293T cells; assay type: cell-based; conditions: HEK293 cells; Fig. 1g; in words
T1 construct: host or cells: HEK293T, transient transfection
Method: (§3) HEK293T cells (700,000 per well) were seeded in six-well plates and incubated to 70% confluency in DMEM (10% FBS, 1% Pen/Strep). Twenty-four hours following seeding, transient transfections were performed using Lipofectamine 2000 (catalogue no. 11668019, Invitrogen) according to the manufacturer’s protocol without including additional transformation carrier DNA.
(§4) Twenty-four hours following transfection, HEK293T cells or MIN6 cells were washed with PBS and resuspended in FluoroBrite phenol red-free complete media (catalogue no. A1896701, Life Technologies) containing 5% FBS and 2 mM of L-glutamine (catalogue no. 25030081, Life Technologies). 100,000 cells per well were plated into poly-D-lysine-coated (catalogue no. P6403, Sigma-Aldrich) 96-well white polystyrene LumiNunc plates (catalogue no. 10072151, Thermo Fisher Scientific). After 24 h, the media was replaced with PBS (catalogue no. 10010056, Gibco) containing 10 μM of coelenterazine-h (catalogue no. S2011, Promega) or 1:500 dilution of NanoGlo (catalogue no. N1110, Promega). BRET measurements were taken every 30 s–2 min using a PHERAstar FS multi-mode microplate reader. […] The resulting ligand-specific ratiometric BRET signals were normalized to vehicle producing the ‘ligand-induced BRET ratio’[37], followed by an additional normalization step to well-specific baseline readings.

[6] = system: hGLP-1R; experiment: Ligand-induced cAMP production (BRET) in mouse MIN6 β-cells; assay type: cell-based, human; conditions: Fig. 1e, in words
Method: as §3, §4

[7] = system: C57BL/6J DIO mice; experiment: Fasting blood glucose, insulin and HOMA-IR in DIO mice (Fig. 2e,f; Extended Data Fig. 3c); assay type: in vivo, mouse; conditions: for HOMA IR: Suppl. Fig. 3c
Method: as §1

[8] = system: C57BL/6J DIO mice; experiment: i.p. insulin tolerance test in DIO mice (Fig. 2g,h; Extended Data Fig. 3a,b); assay type: in vivo, mouse; parameters: unit not given here; conditions: for AOC: ITT, Suppl. Fig. 3b
Method: as §2

T1 sequence (P43220 24-463): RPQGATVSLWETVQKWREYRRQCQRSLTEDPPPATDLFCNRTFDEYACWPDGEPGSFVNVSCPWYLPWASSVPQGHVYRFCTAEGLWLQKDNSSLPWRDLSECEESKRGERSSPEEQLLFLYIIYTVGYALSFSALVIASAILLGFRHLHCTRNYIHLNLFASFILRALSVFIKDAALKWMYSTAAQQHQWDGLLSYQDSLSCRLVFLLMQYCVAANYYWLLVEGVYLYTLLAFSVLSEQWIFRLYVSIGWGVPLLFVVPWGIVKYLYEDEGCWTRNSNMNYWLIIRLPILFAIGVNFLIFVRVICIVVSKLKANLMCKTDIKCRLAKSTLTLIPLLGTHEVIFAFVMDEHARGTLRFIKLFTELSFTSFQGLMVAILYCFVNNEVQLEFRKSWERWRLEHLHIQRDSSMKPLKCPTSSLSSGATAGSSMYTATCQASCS

With CCO[C@@H](Cc1ccc(OCCc2ccc(OS(C)(=O)=O)cc2)cc1)C(=O)O [tesaglitazar, (S)-2-ethoxy-3-(4-(4-((methylsulfonyl)oxy)phenethoxy)phenyl) propanoic acid] the “expression of known PPAR target genes in liver (Fabp4, Plin2) and skeletal muscle (Arntl, Sema3c)” value ([1]; 30-week-old male DIO mice, 3 days, 50 nmol kg−1 per day, Fig. 2j–m, in words) was “induced expression of known PPAR target genes”, the Fabp4 ([1]; DIO mice, Figure 2j, gene expression in liver, individual mice) was 8.80 and 6.98 and 3.76 and 4.88 and 3.64 and 11.43 and 6.16 and 1.27 and the Plin2 ([1]; DIO mice, Figure 2k, gene expression in liver, individual mice) was 1.24 and 1.51 and 1.57 and 2.00 and 1.99 and 2.32 and 2.01 and 1.45. For the same molecule, the Arntl ([1]; DIO mice, Figure 2l, gene expression in skeletal muscle, individual mice, sheet notes an outlier based on grubbs test) was 1.55 and 1.75 and 2.01 and 1.16 and 1.39 and 1.34 and 1.60 and 1.28, the Sema3c ([1]; DIO mice, Figure 2m, gene expression in skeletal muscle, individual mice, sheet notes an outlier based on grubbs test) was 1.70 and 1.69 and 1.38 and 1.05 and 1.02 and 1.72 and 1.95 and 2.14 and the GSIS [2] was 0.684 and 1.33 and 1.611 and 0.796 and 0.457 and 0.687 and 1.335 and 1.19. For the same molecule, the “urinary albumin:creatinine ratio” value [3] was “likewise not changed”, the “blood glucose (plasma glucose)” value ([4]; Fig. 6c) was 482 and 462 and 314 and 500 and 452 and 446 and the AOC ([4]; Fig. 6f, baseline-corrected) was 9 and 124.5 and 63.27 and 252.8 and 257.2 and 64. The “blood glucose (legend: change in blood glucose)” value ([4]; Fig. 6d) was 33 and 120 and -49 and 69 and 52 and 7, the “lysosomal GLP-1R appearance (GLP-1R-Lamp1 colocalization)” value [5] was “had no effect” and the cAMP production [6] was “had no effect”. The “blood glucose” value ([7]; DIO mice, Figure 2e, individual mice) was 110 mg/dL and 133 mg/dL and 143 mg/dL and 112 mg/dL and 107 mg/dL and 150 mg/dL and 108 mg/dL, the insulin ([7]; DIO mice, Figure 2f, individual mice) was 1.06 ng/mL and 1.72 ng/mL and 0.73 ng/mL and 1.32 ng/mL and 2.56 ng/mL and 2.63 ng/mL and 1.88 ng/mL and 1.65 ng/mL and the “HOMA IR” value ([7]; animal 1 of the group) was 9.08. The “HOMA IR” value ([7]; animal 2 of the group) was 17.60, the “HOMA IR” value ([7]; animal 3 of the group) was 17.24 and the “HOMA IR” value ([7]; animal 4 of the group) was 17.30. For the same molecule, the “HOMA IR” value ([7]; animal 5 of the group) was 10.92, the “HOMA IR” value ([7]; animal 6 of the group) was 7.15 and the “HOMA IR” value ([7]; animal 7 of the group) was 14.05. For the same molecule, the “HOMA IR” value ([7]; animal 8 of the group) was 6.44, the AUC ([8]; DIO mice, Figure 2h, AUC of the insulin tolerance test, individual mice, one conjugate mouse missinjected) was 78.83 and 85.05 and 79.73 and 58.88 and 108.1 and 99.38 and 88.2 and 80.48 and the AOC ([8]; animal 1 of the group) was 151.5. The AOC ([8]; animal 2 of the group) was 33, the AOC ([8]; animal 3 of the group) was 29.64 and the AOC ([8]; animal 4 of the group) was 82.26. For the same molecule, the AOC ([8]; animal 5 of the group) was 109.5, the AOC ([8]; animal 6 of the group) was 165 and the AOC ([8]; animal 7 of the group) was 167. It also gave an AOC ([8]; animal 8 of the group) of 172.
